Measured values as given in ChEMBL document CHEMBL1130254, “Screening solution-phase combinatorial libraries using pulsed ultrafiltration/electrospray mass spectrometry” (J Med Chem, 1997).

How the values were obtained:
[1] = Relative ion enhancement, determined in pulsed ultrafiltration; format: ADME
[2] = target: T1, Adenosine deaminase (Homo sapiens) (UniProt P00813)
T1 sequence (whole entry): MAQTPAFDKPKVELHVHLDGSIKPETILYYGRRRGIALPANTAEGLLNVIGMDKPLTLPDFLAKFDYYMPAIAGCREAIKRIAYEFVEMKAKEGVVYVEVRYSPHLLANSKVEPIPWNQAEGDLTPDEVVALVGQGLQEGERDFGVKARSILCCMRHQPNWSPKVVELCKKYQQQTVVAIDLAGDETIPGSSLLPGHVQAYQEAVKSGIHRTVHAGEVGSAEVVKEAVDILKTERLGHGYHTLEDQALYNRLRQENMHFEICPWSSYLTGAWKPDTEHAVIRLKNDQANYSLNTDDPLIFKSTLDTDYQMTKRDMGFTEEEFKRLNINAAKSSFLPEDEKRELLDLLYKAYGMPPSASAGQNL
Description: Adenosine deaminase inhibition index

Row | SMILES | Ion enhancement [1] | ([I]/[S]0.5) [2]
1 | CC(O)C(Cc1ccccc1)n1cnc2c(N)ncnc21 (stereo unspecified) | < 0.01 | 0.069
2 | CCCCCC[C@@H]([C@@H](C)O)n1cnc2c(N)ncnc21 [EHNA] | 1 | 0.00042
3 | CCCCCCCCC(C(C)O)n1cnc2c(N)ncnc21 (stereo unspecified) | 5.3 | 0.00016
